The source made the active and inactive calls. The rule behind the calls is not given here.
Assays:
[1] = Drug uptake in lung of male C57BL/6J mouse at 20 mg/kg, po administered as single dose and measured after 8 hrs by LC-MS/MS analysis; type: ADME, organism-based; conditions: in vivo
[2] = target: NACHT, LRR and PYD domains-containing protein 3 (Mus musculus) (UniProt Q8R4B8); experiment: In vivo inhibition of NLRP3 inflammasome activation in DSS-induced acute ulcerative colitis male C57BL/6J mouse model assessed as reduction in IL-1beta level in colon at 0.2 to 5 mg/kg, po preadministered with DSS for 7 days followed by 3 days of drinking water and measured after 10 days of compound administration by ELISA; type: functional, organism-based; conditions: dose 0.2-5 mg/kg, time 10.0 day
Chain of NACHT, LRR and PYD domains-containing protein 3 (Mus musculus) (Q8R4B8 whole entry, the tested form may be a part): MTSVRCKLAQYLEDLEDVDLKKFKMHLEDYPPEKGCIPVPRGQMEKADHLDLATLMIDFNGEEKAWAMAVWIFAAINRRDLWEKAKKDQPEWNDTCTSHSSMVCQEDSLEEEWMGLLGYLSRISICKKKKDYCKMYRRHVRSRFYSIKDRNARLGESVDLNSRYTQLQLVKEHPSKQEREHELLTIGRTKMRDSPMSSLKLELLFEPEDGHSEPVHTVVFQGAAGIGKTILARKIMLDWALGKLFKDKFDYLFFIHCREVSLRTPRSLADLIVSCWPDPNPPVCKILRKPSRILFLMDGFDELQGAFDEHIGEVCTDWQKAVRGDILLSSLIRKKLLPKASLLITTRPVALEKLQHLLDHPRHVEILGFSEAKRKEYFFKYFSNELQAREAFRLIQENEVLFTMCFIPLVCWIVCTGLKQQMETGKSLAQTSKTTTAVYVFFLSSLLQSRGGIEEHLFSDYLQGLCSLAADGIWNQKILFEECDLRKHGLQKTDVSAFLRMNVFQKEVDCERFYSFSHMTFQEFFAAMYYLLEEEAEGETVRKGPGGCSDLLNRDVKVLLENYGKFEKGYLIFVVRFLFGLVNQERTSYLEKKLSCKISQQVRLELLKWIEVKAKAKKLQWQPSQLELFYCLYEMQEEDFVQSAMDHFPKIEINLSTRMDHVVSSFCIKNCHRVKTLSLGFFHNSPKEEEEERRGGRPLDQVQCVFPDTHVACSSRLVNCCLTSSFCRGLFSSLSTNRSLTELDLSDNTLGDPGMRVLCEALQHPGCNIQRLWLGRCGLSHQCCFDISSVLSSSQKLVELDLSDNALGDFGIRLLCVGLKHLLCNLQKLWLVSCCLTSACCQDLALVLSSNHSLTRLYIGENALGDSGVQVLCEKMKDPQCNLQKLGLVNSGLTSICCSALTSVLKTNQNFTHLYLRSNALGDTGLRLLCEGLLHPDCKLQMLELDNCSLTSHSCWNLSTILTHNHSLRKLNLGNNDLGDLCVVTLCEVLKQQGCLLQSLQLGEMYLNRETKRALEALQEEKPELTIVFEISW

Mus musculus [3] = experiment: Antidiabetic activity in HFD-fed STZ-induced diabetic kidney disease male C57BL/6J mouse model assessed as decrease in IL-1beta level in serum at 20 mg/kg fed with high fat diet for 4 weeks followed by STZ administration for 5 days and measured 6 weeks post compound administration via gavage by ELISA; type: functional, organism-based
[4] = Oral bioavailability in male ICR (CD-1) mouse at 20 mg/kg by LC-MS/MS analysis; type: ADME, organism-based; conditions: in vivo
BMDM [5] = experiment: Inhibition of NLRP3 inflammasome activation at initiation phase in LPS/ATP-stimulated male C57BL/6J mouse BMDM cells assessed as inhibition of TNF-alpha secretion […] for 4 hrs followed by compound administration for 30 mins and measured after 1 hrs of ATP addition by ELISA; type: cell-based; conditions: time 1.5 hrs
[6] = target: Nlrp3/Pycard (Mus musculus) (UniProt Q8R4B8+Q9EPB4); experiment: In vivo inhibition of NLRP3-ASC protein-protein interaction in HFD-fed STZ-induced diabetic kidney disease male C57BL/6J mouse model at 20 mg/kg fed with high fat diet for 4 weeks followed by STZ administration for 5 days and measured 6 weeks post compound administration via gavage by co-immunoprecipitation based Western blot analysis; type: functional, organism-based
Chain of Nlrp3/Pycard (Mus musculus) (Q8R4B8 whole entry, looked up): as the sequence (Q8R4B8 whole entry, the tested form may be a part) above
Chain of Nlrp3/Pycard (Mus musculus) (Q9EPB4 whole entry, looked up): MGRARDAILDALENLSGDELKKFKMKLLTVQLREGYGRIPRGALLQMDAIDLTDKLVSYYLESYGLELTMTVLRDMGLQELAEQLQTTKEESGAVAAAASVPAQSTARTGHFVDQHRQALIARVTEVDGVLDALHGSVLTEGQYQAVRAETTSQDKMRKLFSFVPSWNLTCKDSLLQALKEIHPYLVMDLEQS

Mus musculus [7] = experiment: (§1) Anti-colitis activity in DSS-induced acute ulcerative colitis male C57BL/6J mouse model assessed as reduction in infiltration of inflammatory cells in colon at 0.2 to 5 mg/kg, po preadministered with DSS for 7 days followed by 3 days of drinking water and measured after 10 days of compound administration by H and E staining based analysis; type: functional, organism-based; conditions: dose 0.2-5 mg/kg, time 10.0 day
Mus musculus [8] = experiment: (§2) Antidiabetic activity in HFD-fed STZ-induced diabetic kidney disease male C57BL/6J mouse model assessed as reduction in LDL-C level in serum at 20 mg/kg fed with high fat diet for 4 weeks followed by STZ administration for 5 days and measured 6 weeks post compound administration via gavage; type: functional, organism-based
[9] = target: NACHT, LRR and PYD domains-containing protein 3 (Mus musculus) (UniProt Q8R4B8); experiment: In vivo inhibition of NLRP3 inflammasome activation in LPS/ATP-induced acute peritonitis male C57BL/6J mouse model assessed as reduction in IL-1beta level in serum preadministered orally with compound for 1 hrs followed by LPS addition for 2 hrs and measured 12 hrs post ATP administration by ELISA; type: functional, organism-based; conditions: dose 1-20 mg/kg, route po, time 13.0 hrs
[10] = Drug uptake in heart of male C57BL/6J mouse at 20 mg/kg, po administered as single dose and measured after 8 hrs by LC-MS/MS analysis; type: ADME, organism-based; conditions: in vivo
Mus musculus [11] = experiment: as §2, with “glomerular thickening” for “LDL-C level”, “kidney” for “serum”, “gavage by histological analysis” for “gavage”; type: functional, organism-based
[12] = AUClast in male ICR (CD-1) mouse at 20 mg/kg, po by LC-MS/MS analysis; type: ADME, organism-based; conditions: in vivo
[13] = Half-life in male ICR (CD-1) mouse at 20 mg/kg, po by LC-MS/MS analysis; type: ADME, organism-based; conditions: in vivo
Mus musculus [14] = experiment: (§3) Anti-inflammatory activity in LPS/ATP-induced acute peritonitis male C57BL/6J mouse model assessed as survival rate at 1 mg/kg, po preadministered with compound for 1 hrs followed by LPS addition for 2 hrs and further administered with ATP and measured 21 hrs post LPS administration relative to control; type: functional; conditions: time 22 hrs
Mus musculus [15] = experiment: as §3, with “at 20” for “at 1”; type: functional; conditions: time 22 hrs
[16] = Cytotoxicity against male C57BL/6J mouse BMDM cells; type: functional
BMDM [17] = experiment: Inhibition of AIM2 inflammasome activation in LPS/Poly dA:dT-stimulated male C57BL/6J mouse BMDM cells assessed as inhibition of IL-1beta secretion pretreated with LPS followed by compound addition for 4 hrs and measured after 4 hrs of Poly dA:dT addition by ELISA; type: cell-based; conditions: time 8.0 hrs
Mus musculus [18] = experiment: Anti-colitis activity in DSS-induced acute ulcerative colitis male C57BL/6J mouse model assessed as increase in colon length at 0.2 to 5 mg/kg, po preadministered with DSS for 7 days followed by 3 days of drinking water and measured after 10 days of compound administration; type: functional, organism-based; conditions: dose 0.2-5 mg/kg, time 10.0 day
Mus musculus [19] = experiment: Anti-colitis activity in DSS-induced acute ulcerative colitis male C57BL/6J mouse model assessed as reduction in body weight loss at 5 mg/kg, po preadministered with DSS for 7 days followed by 3 days of drinking water and measured after 10 days of compound administration; type: functional, organism-based; conditions: time 10.0 day
Mus musculus [20] = experiment: Effect on HDL-C level in serum of HFD-fed STZ-induced diabetic kidney disease male C57BL/6J mouse model at 20 mg/kg fed with high fat diet for 4 weeks followed by STZ administration for 5 days and measured 6 weeks post compound administration via gavage; type: functional, organism-based
[21] = Inhibition of NLRP3 inflammasome activation in LPS/ATP-stimulated male C57BL/6J mouse BMDM cells assessed as inhibition of IL-1beta secretion […] for 4 hrs followed by compound administration for 30 mins and measured after 1 hrs of ATP addition by ELISA; type: cell-based
[22] = Cmax in male ICR (CD-1) mouse at 20 mg/kg, po by LC-MS/MS analysis; type: ADME, organism-based; conditions: in vivo
Mus musculus [23] = experiment: Anti-colitis activity in DSS-induced acute ulcerative colitis male C57BL/6J mouse model assessed as decrease in disease activity index score at 0.2 to 5 mg/kg, po preadministered with DSS for 7 days followed by 3 days of drinking water and measured after 10 days of compound administration; type: functional, organism-based; conditions: dose 0.2-5 mg/kg, time 10.0 day
BMDM [24] = experiment: Inhibition of NLRP3 inflammasome activation at initiation phase in LPS/ATP-stimulated male C57BL/6J mouse BMDM cells assessed as inhibition of IL6 secretion […] for 4 hrs followed by compound administration for 30 mins and measured after 1 hrs of ATP addition by ELISA; type: cell-based; conditions: time 1.5 hrs
Mus musculus [25] = experiment: as §2, with “urine albumin-to-creatinine ratio” for “LDL-C level in serum”; type: functional, organism-based
Mus musculus [26] = experiment: Anti-colitis activity in DSS-induced acute ulcerative colitis male C57BL/6J mouse model assessed as reduction in fecal bleeding at 0.2 to 5 mg/kg, po preadministered with DSS for 7 days followed by 3 days of drinking water and measured after 10 days of compound administration; type: functional, organism-based; conditions: dose 0.2-5 mg/kg, time 10.0 day
Mus musculus [27] = experiment: Effect on TNF-alpha level in serum of DSS-induced acute ulcerative colitis male C57BL/6J mouse model at 0.2 to 5 mg/kg, po preadministered with DSS for 7 days followed by 3 days of drinking water and measured after 10 days of compound administration by ELISA; type: functional, organism-based; conditions: dose 0.2-5 mg/kg, time 10.0 day
Mus musculus [28] = experiment: as §2, with “macrophage infiltration” for “LDL-C level”, “kidney” for “serum”, “gavage by F4/80 immunostaining based analysis” for “gavage”; type: functional, organism-based
Mus musculus [29] = experiment: as §1, with “disruption” for “infiltration”, “mucosal barrier” for “inflammatory cells”; type: functional, organism-based; conditions: dose 0.2-5 mg/kg, time 10.0 day
Mus musculus [30] = experiment: Anti-colitis activity in DSS-induced acute ulcerative colitis male C57BL/6J mouse model assessed as reduction in histologic severity score at 0.2 to 5 mg/kg, po preadministered with DSS for 7 days followed by 3 days of drinking water and measured after 10 days of compound administration; type: functional, organism-based; conditions: dose 0.2-5 mg/kg, time 10.0 day

## CN1CCC(N(C)S(=O)(=O)NC(=O)Nc2c3c(cc4c2CCC4)CCC3)CC1
[1]
  Drug uptake: Active
[2]
  inhibition: Active
Mus musculus [3]
  Activity: Active
[4]
  bioavailability: 99.6%
BMDM [5]
  inhibition: inactive
[6]
  inhibition: Active
Mus musculus [7]
  Activity: Active
Mus musculus [8]
  Activity: Active
[9]
  inhibition: Dose-dependent-effect
[10]
  Drug uptake: Active
Mus musculus [11]
  Activity: Active
[12]
  AUC(0-t): 57900 ng·h/mL
[13]
  half-life: 162 min
Mus musculus [14]
  survival at 1 mg/kg: 75%
Mus musculus [15]
  survival at 20 mg/kg: 100%
[16]
  CC50: > 100 µM
BMDM [17]
  inhibition: inactive
Mus musculus [18]
  Activity: inactive
Mus musculus [19]
  Activity: Active; Significant Difference Not Observed
Mus musculus [20]
  Activity: inactive
[21]
  IC50: 106 nM
[22]
  Cmax: 35500 ng/mL
Mus musculus [23]
  Activity: Active
BMDM [24]
  inhibition: inactive
Mus musculus [25]
  Activity: Active
Mus musculus [26]
  Activity: Active
Mus musculus [27]
  Activity: inactive
Mus musculus [28]
  Activity: Active
Mus musculus [29]
  Activity: Active
Mus musculus [30]
  Activity: Active

Reference: ChEMBL document CHEMBL6109121, “Discovery of Novel Sulfonylurea NLRP3 Inflammasome Inhibitor for the Treatment of Multiple Inflammatory Diseases” (J Med Chem, 2025)
